Each structure is given as a SMILES string. Where two headings read alike, the source gives them in different places.

43 molecules from paper PMC8839658, “Design and Activity of Novel Oxadiazole Based Compounds That Target Poly(ADP-ribose) Polymerase” (Molecules, 2022) can be followed below.

The subject of data set [1] is MCF-7 cells. In words: MCF-7 cell viability assay (Alamar Blue). The conditions noted are these: MCF-7, 72 h, Alamar Blue, read-out: IC50, cell viability of MCF-7 cells. Type of data set: cell-based, human. How it is done:
Initially, the newly synthesized oxadiazoles were examined in cell viability studies in human breast cancer (MCF-7) cells using Alamar Blue assays.
MCF-7 and MDA-MB-231 (2000) cells were cultured in MEM or Leibovitz’s L-15 medium enriched with 2% FBS and maintained in a humidified atmosphere of 5% CO2 at 37 °C [44]. DMSO dissolved compounds were kept as a stock solution, and diluted with a cell culture medium to the desired concentration. Cancer cells (4 × 10^3) were grown overnight in 96-well plates, cultured, and treated with oxadiazoles or Olaparib at 0, 0.01, 0.1, 10, 100, and 1000 µM concentrations for 72 h. The inhibitory effect of the compounds was assessed using Alamar Blue reagent.
MCF-7 and MDA-MB-231 were treated with 5u, 5s and Olaparib (0, 0.01, 0.1, 1, 10, 100 µM) for 72 h, respectively. The viability of MCF-7 (A) and MDA-MB-231 cells (B) were analyzed using a microplate reader to measure the fluorescence of Alamar Blue reagent (excitation wavelength is between 530–560 nm and emission wavelength is 590 nm). The results are means of triplicate determinations.
On the technique in general: The colour change of resazurin is a common sign of viable cells or microbes.

For data set [2], the target named is T1, recombinant human PARP enzyme (PARP1) (Homo sapiens, UniProt P09874).
T1 construct: purchased R&D Systems Ltd., Abingdon, UK 4677-096-K
Description: PARP activity, PARP/Apoptosis Universal Colorimetric Assay Kit. Format: biochemical. The conditions noted are these: n = 3. The method, then: PARP activity was measured using the PARP/Apoptosis Universal Colorimetric Assay Kit (4677-096-K, R&D Systems Ltd., Abingdon, UK). The enzyme inhibition assay uses the histone proteins immobilized 96-well plate, which measures the incorporation of ADP-ribose (biotin-tagged), followed by detection using streptavidin-conjugated horse-radish peroxidase, and finally the color development after the addition of substrate. Oxadiazoles were incubated with the recombinant human PARP enzyme prior to detection.

T1 sequence (P09874 whole entry): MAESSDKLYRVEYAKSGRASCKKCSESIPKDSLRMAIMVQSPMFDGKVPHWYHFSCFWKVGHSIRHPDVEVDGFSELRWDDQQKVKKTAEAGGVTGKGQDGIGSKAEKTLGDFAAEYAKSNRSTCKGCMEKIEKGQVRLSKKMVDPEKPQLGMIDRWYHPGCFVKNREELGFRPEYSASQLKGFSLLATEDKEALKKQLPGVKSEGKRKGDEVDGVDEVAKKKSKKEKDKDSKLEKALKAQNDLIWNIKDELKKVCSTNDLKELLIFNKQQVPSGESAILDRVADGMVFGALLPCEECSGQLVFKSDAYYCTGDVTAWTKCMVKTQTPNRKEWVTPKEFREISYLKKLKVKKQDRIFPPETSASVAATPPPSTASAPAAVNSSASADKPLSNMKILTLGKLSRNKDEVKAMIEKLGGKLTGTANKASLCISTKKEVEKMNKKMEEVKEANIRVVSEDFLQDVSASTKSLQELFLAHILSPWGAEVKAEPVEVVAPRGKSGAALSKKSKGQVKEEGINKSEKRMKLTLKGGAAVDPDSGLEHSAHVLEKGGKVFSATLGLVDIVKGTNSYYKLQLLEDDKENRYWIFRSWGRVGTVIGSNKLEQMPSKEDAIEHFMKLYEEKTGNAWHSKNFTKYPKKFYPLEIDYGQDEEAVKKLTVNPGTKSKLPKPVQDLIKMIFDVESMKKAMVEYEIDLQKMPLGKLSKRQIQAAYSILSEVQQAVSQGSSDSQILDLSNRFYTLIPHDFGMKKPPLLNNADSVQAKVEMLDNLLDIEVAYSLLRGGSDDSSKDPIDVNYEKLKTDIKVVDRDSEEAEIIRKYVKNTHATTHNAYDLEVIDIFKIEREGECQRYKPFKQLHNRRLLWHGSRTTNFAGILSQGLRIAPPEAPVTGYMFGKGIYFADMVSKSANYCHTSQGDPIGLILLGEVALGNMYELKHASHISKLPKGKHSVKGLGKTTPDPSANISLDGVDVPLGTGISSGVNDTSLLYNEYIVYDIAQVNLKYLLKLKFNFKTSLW

Broadly, the IC50 is the concentration that inhibits the measured activity by half. The term melting point denotes the temperature of the solid-liquid transition. As to `COc1ccc(Cc2nnc(-c3cccc(-c4cncnc4)c3)o2)cc1OC` [compound 5h, 2-(3,4-Dimethoxybenzyl)-5-(3-(pyrimidin-5-yl)phenyl)-1,3,4-oxadiazole], the melting point is 98 to 100 °C. For the same molecule, in data set [1] (Homo sapiens, MCF7, 72 h), the IC50 is 21.8 µM.
Take `COc1cccc2c1C(=O)c1c(O)c3c(c(O)c1C2=O)C[C@@](O)(C(=O)CO)C[C@@H]3O[C@H]1C[C@H](N)[C@H](O)[C@H](C)O1` [Doxorubicin, reference compound]: in data set [1] (Homo sapiens, MCF7, 72 h), the IC50 turned out to be 0.24 µM.
The same measure, in the same setting: the figure for `COc1ccc(Cc2nnc(-c3cccc(-c4cnc(F)c(C)c4)c3)o2)cc1` [C00018] is 41.2 µM; for `c1cc(-c2nnc(-c3ccc4c(c3)OCCO4)o2)cc(-c2cccc3ccccc23)c1` [C00010] it is 74.8 µM.
Consider `COc1ccc(Cc2nnc(-c3cccc(-c4cnc(F)c(C)c4)c3)o2)cc1` [compound 5o, 2-(3-(6-Fluoro-5-methylpyridin-3-yl)phenyl)-5-(4-methoxybenzyl)-1,3,4-oxadiazole], for which the melting point lay within 86 to 88 °C.
On to `COc1cccc(-c2cccc(-c3nnc(-c4ccc5c(c4)OCCO5)o3)c2)c1` [C00008], for which the IC50 in data set [1] (Homo sapiens, MCF7, 72 h) is 345 µM.
The molecule `Cc1cncc(-c2cccc(-c3nnc(-c4ccc5c(c4)OCCO5)o3)c2)c1C` [5k, 2-(2,3-Dihydrobenzo[b][1,4]dioxin-6-yl)-5-(3-(4,5-dimethylpyridin-3-yl)phenyl)-1,3,4-oxadiazole] gave a melting point of 198 to 200 °C.
`COc1ccc(Cc2nnc(-c3cccc(-c4ccnc(F)c4C)c3)o2)cc1OC` [C00015]: in data set [1], the IC50 amounted to 15.3 µM.
In turn, `O=C(NC1CCCC1)c1cccc(-c2cccc(-c3nnc(-c4ccc5c(c4)OCCO5)o3)c2)c1` [5c, N-Cyclopentyl-3′-(5-(2,3-dihydrobenzo[b][1,4]dioxin-6-yl)-1,3,4-oxadiazol-2-yl)-[1,1′-biphenyl]-3-carboxamide] came in with a melting point of 186 to 188 °C.
Take `COc1ccc(Cc2nnc(-c3cccc(-c4cncnc4)c3)o2)cc1` [C00003]: the IC50 in data set [1] (Homo sapiens, MCF7, 72 h) stood at 31.5 µM.
On to `COc1ccc(Cc2nnc(-c3cccc(-c4ccc(C(C)=O)s4)c3)o2)cc1OC` [C00025], for which the concentration for half-maximal inhibition (IC50) in data set [1] (Homo sapiens, MCF7, 72 h) was more than 100 µM.
Same read-out and setting: for `c1cc(-c2cncnc2)cc(-c2nnc(-c3ccc4c(c3)OCCO4)o2)c1` [C00007] the value was 43.5 µM.
On to `COc1ccc(Cc2nnc(-c3cccc(-c4cccc(C=O)c4)c3)o2)cc1` [C00019], for which the IC50 in data set [1] is 1.45 µM.
Consider `COc1ccc(Cc2nnc(-c3cccc(-c4cccnc4)c3)o2)cc1` [C00013], for which, in data set [1] (Homo sapiens, MCF7, 72 h), the IC50 was determined as 30.9 µM.
For `COc1ccc(Cc2nnc(-c3cccc(-c4cncnc4)c3)o2)cc1OC` [C00005], the concentration for half-maximal inhibition (IC50) in data set [1] was 21.9 µM.
`Cc1cc(-c2cccc(-c3nnc(-c4ccc5c(c4)OCCO5)o3)c2)cnc1Cl` [C00002]: the IC50 in data set [1] (Homo sapiens, MCF7, 72 h) is 160 µM.
The molecule `c1cc(-c2ccncc2)cc(-c2nnc(-c3ccc4c(c3)OCCO4)o2)c1` [5f, 2-(2,3-Dihydrobenzo[b][1,4]dioxin-6-yl)-5-(3-(pyridin-4-yl)phenyl)-1,3,4-oxadiazole] gave a melting point of 194 to 196 °C.
`COc1ccc(Cc2nnc(-c3cccc(-c4ccc(C(C)=O)s4)c3)o2)cc1` [compound 5w, 1-(5-(3-(5-(4-Methoxybenzyl)-1,3,4-oxadiazol-2-yl)phenyl)thiophen-2-yl)ethanone]: the IC50 in data set [1] (Homo sapiens, MCF7, 72 h) came out at 23.1 µM.
Still for that read-out and setting: for `c1cncc(-c2cccc(-c3nnc(-c4ccc5c(c4)OCCO5)o3)c2)c1` [C00016] the value was 182 µM; for `FC(F)(F)c1ccc(-c2cccc(-c3nnc(-c4ccc5c(c4)OCCO5)o3)c2)cc1` [C00004], 205 µM.
For `COc1ccc(Cc2nnc(-c3cccc(-c4cnc(F)c(C)c4)c3)o2)cc1OC` [C00020], the IC50 in data set [1] turned out to be 18.4 µM.
The molecule `COc1ccc(Cc2nnc(-c3cccc(-c4cnc(F)c(C)c4)c3)o2)cc1OC` [compound 5p, 2-(3,4-Dimethoxybenzyl)-5-(3-(6-fluoro-5-methylpyridin-3-yl)phenyl)-1,3,4-oxadiazole] yielded a melting point of 91 to 93 °C. The IC50 in data set [1] (Homo sapiens, MCF7, 72 h) came to 18.4 µM.
As to `Cc1cc(-c2cccc(-c3nnc(-c4ccc5c(c4)OCCO5)o3)c2)cnc1F` [5q, 2-(2,3-Dihydrobenzo[b][1,4]dioxin-6-yl)-5-(3-(6-fluoro-5-methylpyridin-3-yl)phenyl)-1,3,4-oxadiazole], the melting point fell in the range of 144 to 146 °C.
`Cc1c(-c2cccc(-c3nnc(-c4ccc5c(c4)OCCO5)o3)c2)ccnc1F` [5t, 2-(2,3-Dihydrobenzo[b][1,4]dioxin-6-yl)-5-(3-(2-fluoro-3-methylpyridin-4-yl)phenyl)-1,3,4-oxadiazole] registered a melting point of 128 to 130 °C.
Consider `COc1ccc(Cc2nnc(-c3cccc(-c4ccnc(F)c4C)c3)o2)cc1` [compound 5r, 2-(3-(2-Fluoro-3-methylpyridin-4-yl)phenyl)-5-(4-methoxybenzyl)-1,3,4-oxadiazole], for which the melting point lay in the range of 94 to 96 °C. In data set [1] (Homo sapiens, MCF7, 72 h), the IC50 is 25 µM.
For `COc1ccc(Cc2nnc(-c3cccc(-c4cccnc4)c3)o2)cc1OC` [compound 5m, 2-(3,4-Dimethoxybenzyl)-5-(3-(pyridin-3-yl)phenyl)-1,3,4-oxadiazole] the same measures were 78 to 80 °C and 27.1 µM.
As for `COc1ccc(Cc2nnc(-c3cccc(-c4cncnc4)c3)o2)cc1` [compound 5g, 2-(4-Methoxybenzyl)-5-(3-(pyrimidin-5-yl)phenyl)-1,3,4-oxadiazole], the melting point fell in the range of 90 to 92 °C.
Consider `COc1ccc(Cc2nnc(-c3cccc(-c4cncc(C)c4C)c3)o2)cc1OC` [C00009], for which the IC50 in data set [1] (Homo sapiens, MCF7, 72 h) amounted to 33.2 µM.
A word on the inhibition: it is the relative decrease from the control value, in per cent. As to `NC(=O)c1cccc(N)c1` [3-Aminobenzamide, reference compound], the inhibition at 0.01 µM in data set [2] (0.01 µM) is 0.5%. Besides, in data set [2] (0.1 µM), the inhibition at 0.1 µM is 6.17%. In data set [2] (1 µM), the inhibition at 1 µM turned out to be 23.3%. Besides, the inhibition at 10 µM in data set [2] (10 µM) turned out to be 56.6%. In data set [2] (100 µM), the inhibition at 100 µM is 85.7%.
Regarding `COc1ccc(Cc2nnc(-c3cccc(-c4cccnc4)c3)o2)cc1OC` [C00014], the IC50 in data set [1] amounted to 27.1 µM.
Take `Cc1c(-c2cccc(-c3nnc(-c4ccc5c(c4)OCCO5)o3)c2)ccnc1F` [C00017]: in data set [1] (Homo sapiens, MCF7, 72 h), the IC50 worked out at 265 µM.
As for `c1cncc(-c2cccc(-c3nnc(-c4ccc5c(c4)OCCO5)o3)c2)c1` [5n, 2-(2,3-Dihydrobenzo[b][1,4]dioxin-6-yl)-5-(3-(pyridin-3-yl)phenyl)-1,3,4-oxadiazole], the melting point fell in the range of 138 to 140 °C.
Consider `Cc1cncc(-c2cccc(-c3nnc(-c4ccc5c(c4)OCCO5)o3)c2)c1C` [C00011], for which, in data set [1] (Homo sapiens, MCF7, 72 h), the IC50 is 76.4 µM.
Turning to `c1cc(-c2ccncc2)cc(-c2nnc(-c3ccc4c(c3)OCCO4)o2)c1` [C00012], the IC50 in data set [1] (Homo sapiens, MCF7, 72 h) was more than 100 µM.
Turning to `c1cc(-c2nnc(-c3ccc4c(c3)OCCO4)o2)cc(-c2cccc3ccccc23)c1` [5e, 2-(2,3-Dihydrobenzo[b][1,4]dioxin-6-yl)-5-(3-(naphthalen-1-yl)phenyl)-1,3,4-oxadiazole], the melting point is 156 to 158 °C.
For `COc1ccc(Cc2nnc(-c3cccc(-c4ccnc(F)c4C)c3)o2)cc1` [C00024], in data set [1], the IC50 is 25 µM.
Take `O=Cc1cccc(-c2cccc(-c3nnc(-c4ccc5c(c4)OCCO5)o3)c2)c1` [C00021]: the IC50 in data set [1] (Homo sapiens, MCF7, 72 h) was determined as 85.3 µM.
Take `O=C(NC1CCCC1)c1cccc(-c2cccc(-c3nnc(-c4ccc5c(c4)OCCO5)o3)c2)c1` [C00006]: the IC50 in data set [1] (Homo sapiens, MCF7, 72 h) came out at 161 µM.
For the molecule `COc1ccc(Cc2nnc(-c3cccc(-c4cncc(C)c4C)c3)o2)cc1OC` [compound 5j, 2-(3,4-Dimethoxybenzyl)-5-(3-(4,5-dimethylpyridin-3-yl)phenyl)-1,3,4-oxadiazole], the melting point was 90 to 92 °C.
In the case of `FC(F)(F)c1ccc(-c2cccc(-c3nnc(-c4ccc5c(c4)OCCO5)o3)c2)cc1` [5b, 2-(2,3-Dihydrobenzo[b][1,4]dioxin-6-yl)-5-(4′-(trifluoromethyl)-[1,1′-biphenyl]-3-yl)-1,3,4-oxadiazole], the melting point lay in the range of 160 to 162 °C.
On the same count and under the same terms, the figure for `c1cc(-c2cncnc2)cc(-c2nnc(-c3ccc4c(c3)OCCO4)o2)c1` [5i, 2-(2,3-Dihydrobenzo[b][1,4]dioxin-6-yl)-5-(3-(pyrimidin-5-yl)phenyl)-1,3,4-oxadiazole] is 190 to 192 °C.
Regarding `Cc1cc(-c2cccc(-c3nnc(-c4ccc5c(c4)OCCO5)o3)c2)cnc1F` [C00022], the IC50 in data set [1] (Homo sapiens, MCF7, 72 h) was 84 µM.
Turning to `COc1ccc(Cc2nnc(-c3cccc(-c4ccc(C(C)=O)s4)c3)o2)cc1` [C00023], the IC50 in data set [1] turned out to be 23.1 µM.
